# ChEMBL document CHEMBL1201862, “PubChem BioAssay data set” (2004)
# Activity calls are given as the source filed them. Where a SMILES comes first, the peptide text is derived from it. Bridges are numbered along the chain shown (N, C = ends). [ ]: non-standard residue; d: D form. The star is where a group is joined. bishTyr = N[C@@H](CCCc1ccc(O)cc1)C(=O)O; Tigloyl = C/C=C(\C)C(=O)*; Dhb = C/C=C(\N)C(=O)O
# Columns and labels:
# [1] = RKO cell viability reduction, dose response, CellTiter-Glo luminescence (AID 1117322); assay type: functional
# [2] = cytotoxicity toward HCT116 cells – cell-based, CellTiter-Glo luminescence, IC50, dose response (AID 1117332); assay type: functional; settings: HCT-116
# [3] = rise of 2N DNA cells, HeLa – IC50, dose response (AID 1117349); assay type: functional, cell-based
# [4] = HCT116 cell viability decrease, GSK3B pretreatment – CellTiter-Glo, IC50, dose response (AID 1117339); assay type: functional; settings: HCT-116
# [5] = rise of 4N DNA cells, HeLa – IC50, dose response (AID 1117351); assay type: functional, cell-based
# [6] = CellTiter-Glo luminescence survival assay, SW480 colon tumor line, concentration-response curve, half-maximal inhibitory concentration (AID 1117338); assay type: functional
# [7] = cytotoxicity toward Colo320 cells – cell-based, CellTiter-Glo luminescence, IC50, dose response (AID 1117334); assay type: functional; settings: COLO 320
# [8] = SNU-C1 cell viability reduction, dose response, CellTiter-Glo luminescence (AID 1117323); assay type: functional, cell-based
# [9] = Reduced DLD-1 viability, concentration-response, CellTiter-Glo luminescence (AID 1117352); assay type: functional
# [10] = cytotoxicity toward HT-29 cells – cell-based, CellTiter-Glo luminescence, IC50, dose response (AID 1117330); assay type: functional
# [11] = Dd2 parasite growth inhibition in erythrocytes – SYBR Green, dry powder samples, set 4, dose response (AID 1159572); assay type: functional, cell-based
# [12] = growth inhibition of yeast DHODH-expressing 3D7 parasites – SYBR Green, dry powder samples, dose response (AID 1159570); assay type: functional, cell-based;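 also: parasite growth measured after 72 hours of compound exposure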
# [13] = growth inhibition of PfATP4-mutant resistant parasites – NITD609-resistant line, SYBR Green, dry powder, dose response (AID 1159571); assay type: functional, cell-based;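 also: parasites synchronized at ring stage by sorbitol before testing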
# [14] = P. falciparum Dd2 growth inhibitors, dose response, SYBR Green, cherry-picked samples (AID 1159567); assay type: functional, cell-based
# [15] = toxicity to human HepG2 hepatoma cells – cell-based, plate reader, dry powder samples, cytotoxicity control, dose response (AID 1159569); assay type: functional;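 also: inhibitor potency with signal falling toward the positive control level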
# [16] = Dd2 malaria parasite growth inhibition potency – SYBR Green, dry powder samples, dose response (AID 1159566); assay type: functional, cell-based;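 also: potency for growth inhibition with lower SYBR green DNA signal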
# [17] = toxicity to human hepatoma HepG2 cells – cell-based, cherry-picked samples, cytotoxicity control, dose response (AID 1159577); assay type: functional
# [18] = antimalarial activity against Dd2 parasites – SYBR Green fluorescence, erythrocytes, dry powder, set 2, dose response (AID 1159574); assay type: functional, cell-based
# [19] = target: Oxysterols receptor LXR-beta (Homo sapiens, UniProt P55055); experiment: LXR agonists, Gal4 luciferase reporter, dose response, counter-screen for ssDAF-12 agonist project, cell-based, luminescence, HEK293, S. stercoralis campaign (AID 720737); assay type: functional; settings: read-out: IC50 (the source's name)
# [20] = Luminescence-based cell-based high throughput dose response assay to identify activators of the DAF-12 from the parasite S. stercoralis (ssDAF-12).; assay type: functional
# [21] = target: NAD-dependent protein deacylase sirtuin-5, mitochondrial (Homo sapiens, UniProt Q9NXA8); experiment: sirtuin-5 deacylation blockers, concentration series – biochemical, fluorescence imaging, cherry-pick, set 5, dose response (AID 720591);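 also: desuccinylation of succinyl peptide AMC substrate read as fluorescence after trypsin release; potency of inhibitors that lower fluorescence and may act on trypsin instead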
# [22] = target: T1, Replicative DNA helicase DnaB (Mycobacterium tuberculosis, UniProt P9WMR3); experiment: DnaB intein splicing inhibitors, dose response, biochemical, cell-free fluorescence (AID 449749); assay type: functional
# T1 sequence (P9WMR3 whole entry): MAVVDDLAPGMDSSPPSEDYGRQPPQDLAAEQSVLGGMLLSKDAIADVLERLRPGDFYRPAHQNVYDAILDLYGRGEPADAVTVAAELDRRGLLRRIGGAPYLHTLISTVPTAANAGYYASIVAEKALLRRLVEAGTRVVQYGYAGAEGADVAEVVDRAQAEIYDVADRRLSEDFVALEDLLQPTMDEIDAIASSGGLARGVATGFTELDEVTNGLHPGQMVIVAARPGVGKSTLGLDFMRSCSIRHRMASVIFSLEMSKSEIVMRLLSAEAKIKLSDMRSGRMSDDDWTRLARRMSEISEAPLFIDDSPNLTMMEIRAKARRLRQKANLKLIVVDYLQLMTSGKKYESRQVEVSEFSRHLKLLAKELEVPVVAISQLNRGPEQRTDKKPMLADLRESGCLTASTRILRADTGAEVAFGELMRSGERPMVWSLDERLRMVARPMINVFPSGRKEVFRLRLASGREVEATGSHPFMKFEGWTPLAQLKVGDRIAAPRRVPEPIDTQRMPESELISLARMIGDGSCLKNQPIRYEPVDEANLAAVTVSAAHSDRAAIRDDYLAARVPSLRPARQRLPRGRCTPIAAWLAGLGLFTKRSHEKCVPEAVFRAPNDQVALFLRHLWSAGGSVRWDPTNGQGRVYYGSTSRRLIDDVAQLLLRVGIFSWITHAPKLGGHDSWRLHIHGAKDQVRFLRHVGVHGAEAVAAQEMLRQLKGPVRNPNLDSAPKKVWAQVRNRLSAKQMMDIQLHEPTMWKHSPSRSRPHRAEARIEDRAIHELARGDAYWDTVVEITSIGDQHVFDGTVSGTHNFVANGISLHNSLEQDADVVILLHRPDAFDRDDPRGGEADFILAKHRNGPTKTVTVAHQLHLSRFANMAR
# Protein RecA = target: T2, Protein RecA (Mycobacterium tuberculosis, UniProt P9WHJ3); experiment: Fluorescence Cell-Free Homogeneous Dose Retest to Identify Inhibitors of RecA-Intein Splicing Activity. [Related pubchem assays (depositor defined):AID2097, AID2223, AID489010, AID492950]; assay type: functional
# T2 sequence (P9WHJ3 whole entry): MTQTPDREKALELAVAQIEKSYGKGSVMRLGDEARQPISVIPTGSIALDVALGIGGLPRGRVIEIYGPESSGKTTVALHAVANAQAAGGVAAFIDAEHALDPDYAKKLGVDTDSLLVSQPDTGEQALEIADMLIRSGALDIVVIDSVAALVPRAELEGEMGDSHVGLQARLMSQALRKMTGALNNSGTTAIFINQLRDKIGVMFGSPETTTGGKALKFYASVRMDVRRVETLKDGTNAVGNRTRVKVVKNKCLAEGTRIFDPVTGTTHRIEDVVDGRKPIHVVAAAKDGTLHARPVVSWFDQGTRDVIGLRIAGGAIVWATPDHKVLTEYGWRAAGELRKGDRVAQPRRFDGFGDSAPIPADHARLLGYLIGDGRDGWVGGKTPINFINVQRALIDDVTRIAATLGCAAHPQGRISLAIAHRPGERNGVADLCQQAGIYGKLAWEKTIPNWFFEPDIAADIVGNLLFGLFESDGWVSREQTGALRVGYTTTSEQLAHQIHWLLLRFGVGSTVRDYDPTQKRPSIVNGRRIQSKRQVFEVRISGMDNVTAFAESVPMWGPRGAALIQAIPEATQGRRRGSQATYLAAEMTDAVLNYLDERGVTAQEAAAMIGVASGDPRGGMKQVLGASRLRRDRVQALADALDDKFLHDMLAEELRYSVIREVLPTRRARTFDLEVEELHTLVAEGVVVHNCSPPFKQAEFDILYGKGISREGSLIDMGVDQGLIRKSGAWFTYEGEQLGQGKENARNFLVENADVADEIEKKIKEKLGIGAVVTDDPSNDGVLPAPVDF
# fMet-Leu-Phe receptor = fMet-Leu-Phe receptor (Homo sapiens, UniProt P21462); experiment: formyl peptide receptor binders – dose response (AID 519); assay type: functional
# SUMO-activating enzyme [23] = target: T3, SUMO-activating enzyme (Homo sapiens, UniProt Q9UBT2); experiment: blockers of UBC9-mediated SUMO conjugation – biochemical, AlphaScreen, SUMOylation inhibitor project, confirmation (AID 2018); assay type: functional
# Bcl-2-related protein A1 [24] = target: T4, Bcl-2-related protein A1 (Mus musculus, UniProt Q07440); experiment: small-molecule antagonists of Bfl-1/BH3 interaction – biochemical, TR-FRET, mouse Bfl-1, confirmation (AID 621);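 also: TR-FRET binding of GST-Bfl-1 to FITC-labelled Bid peptide via terbium antibody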
# T4 sequence (Q07440 whole entry): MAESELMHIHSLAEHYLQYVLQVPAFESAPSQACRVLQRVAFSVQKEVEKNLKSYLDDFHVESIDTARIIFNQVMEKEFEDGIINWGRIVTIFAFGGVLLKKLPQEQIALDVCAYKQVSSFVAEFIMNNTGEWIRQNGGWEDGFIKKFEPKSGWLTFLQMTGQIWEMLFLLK
# SUMO-activating enzyme [25] = target: T3, SUMO-activating enzyme; experiment: blockers of SAE1/SAE2–UBC9 SUMO transfer – biochemical, HTRF, uHTS, primary screen (AID 2006); assay type: protein-complex assay
# Bcl-2-related protein A1 [26] = target: T4, Bcl-2-related protein A1; experiment: displacement of Bid BH3 peptide from Bfl-1 – biochemical, fluorescence polarization, FITC-Bid, mouse, primary screen (AID 432)
# [27] = Dd2 parasite growth inhibition in erythrocytes – SYBR Green, dry powder samples, set 9, dose response (AID 1159568); assay type: functional, cell-based
# T3 sequence (Q9UBE0 whole entry): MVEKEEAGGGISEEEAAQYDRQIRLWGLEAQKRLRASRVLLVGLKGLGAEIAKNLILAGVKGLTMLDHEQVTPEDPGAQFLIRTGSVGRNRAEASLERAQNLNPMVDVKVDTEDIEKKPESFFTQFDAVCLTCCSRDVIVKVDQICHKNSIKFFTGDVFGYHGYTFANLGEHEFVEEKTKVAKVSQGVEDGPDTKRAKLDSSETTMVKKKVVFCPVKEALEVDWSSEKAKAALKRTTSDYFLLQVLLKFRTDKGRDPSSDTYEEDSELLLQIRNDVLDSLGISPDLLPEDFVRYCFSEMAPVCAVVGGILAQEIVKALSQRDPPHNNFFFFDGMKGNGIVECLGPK
# T3 sequence (Q9UBT2 whole entry): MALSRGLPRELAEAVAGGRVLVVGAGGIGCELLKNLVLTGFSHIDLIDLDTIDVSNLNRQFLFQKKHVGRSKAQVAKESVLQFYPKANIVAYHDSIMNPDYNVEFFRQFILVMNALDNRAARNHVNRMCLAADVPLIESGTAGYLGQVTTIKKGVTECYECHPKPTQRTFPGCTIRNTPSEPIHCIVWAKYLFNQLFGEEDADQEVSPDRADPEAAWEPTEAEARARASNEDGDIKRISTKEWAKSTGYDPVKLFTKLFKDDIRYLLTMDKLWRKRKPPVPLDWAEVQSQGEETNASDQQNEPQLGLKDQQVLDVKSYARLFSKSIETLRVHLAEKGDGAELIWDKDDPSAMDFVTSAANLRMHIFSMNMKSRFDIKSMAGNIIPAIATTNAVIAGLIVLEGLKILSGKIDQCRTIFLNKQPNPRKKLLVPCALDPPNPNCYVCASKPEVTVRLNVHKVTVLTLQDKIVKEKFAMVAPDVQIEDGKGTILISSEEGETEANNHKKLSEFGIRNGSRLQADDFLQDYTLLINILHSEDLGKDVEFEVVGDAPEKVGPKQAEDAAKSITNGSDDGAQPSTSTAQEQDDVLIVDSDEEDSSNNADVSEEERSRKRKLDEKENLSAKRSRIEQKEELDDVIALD
# Sequence of Oxysterols receptor LXR-beta (P55055 whole entry, the tested form may be a part): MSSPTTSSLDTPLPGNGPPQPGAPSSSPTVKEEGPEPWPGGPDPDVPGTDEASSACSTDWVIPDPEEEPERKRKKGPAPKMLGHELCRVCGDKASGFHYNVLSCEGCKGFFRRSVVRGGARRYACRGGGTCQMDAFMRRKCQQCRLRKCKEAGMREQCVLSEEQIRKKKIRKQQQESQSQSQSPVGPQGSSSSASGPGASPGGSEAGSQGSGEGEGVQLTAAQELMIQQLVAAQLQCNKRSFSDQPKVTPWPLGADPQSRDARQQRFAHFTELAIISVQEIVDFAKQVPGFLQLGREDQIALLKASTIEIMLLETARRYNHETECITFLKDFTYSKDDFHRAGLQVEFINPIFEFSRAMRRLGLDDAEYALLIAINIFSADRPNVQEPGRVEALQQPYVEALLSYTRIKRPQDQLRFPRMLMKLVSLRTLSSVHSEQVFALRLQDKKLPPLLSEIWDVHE
# Sequence of fMet-Leu-Phe receptor (P21462 whole entry): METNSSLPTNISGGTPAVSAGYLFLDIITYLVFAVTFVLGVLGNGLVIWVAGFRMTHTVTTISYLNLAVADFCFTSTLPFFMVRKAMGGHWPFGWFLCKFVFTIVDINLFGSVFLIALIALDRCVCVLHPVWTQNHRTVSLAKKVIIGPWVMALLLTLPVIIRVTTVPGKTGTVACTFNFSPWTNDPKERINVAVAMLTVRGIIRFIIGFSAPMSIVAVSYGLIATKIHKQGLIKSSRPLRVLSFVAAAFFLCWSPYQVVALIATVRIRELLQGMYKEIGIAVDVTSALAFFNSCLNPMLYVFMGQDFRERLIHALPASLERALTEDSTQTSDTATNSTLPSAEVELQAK
# Sequence of NAD-dependent protein deacylase sirtuin-5, mitochondrial (Q9NXA8 whole entry): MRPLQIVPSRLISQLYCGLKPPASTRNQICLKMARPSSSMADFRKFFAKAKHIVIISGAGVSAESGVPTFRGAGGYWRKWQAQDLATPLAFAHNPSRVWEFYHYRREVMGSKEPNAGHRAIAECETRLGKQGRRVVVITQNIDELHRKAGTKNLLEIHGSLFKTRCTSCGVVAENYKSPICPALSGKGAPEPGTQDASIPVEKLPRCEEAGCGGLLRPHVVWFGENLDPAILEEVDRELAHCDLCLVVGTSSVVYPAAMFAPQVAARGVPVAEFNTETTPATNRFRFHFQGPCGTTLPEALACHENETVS
smiles,measurement,setting,value
O=C(c1cc(O)c(O)c(O)c1)c1ccc(O)c(O)c1O [EXIFONE],IC50,[1],0.192 µM (active)
same,IC50,[2],16.3 µM (inactive)
same,IC50,[3],> 10 µM (inactive)
same,IC50,[4],0.0691 µM (active)
same,IC50,[5],> 10 µM (inactive)
same,IC50,[6],9.95 µM (inactive)
same,IC50,[7],9.38 µM (inactive)
same,IC50,[8],12.8 µM (inactive)
same,IC50,[9],11.9 µM (inactive)
same,IC50,[10],9.45 µM (inactive)
COc1ccc2c3c([nH]c2c1)[C@H](CO)N(C(C)=O)CC31CCN(C(=O)Nc2ccccc2F)CC1,AC50,[11],0.101 µM (active)
same,AC50,[12],0.0263 µM (active)
same,AC50,[13],0.0166 µM (active)
same,AC50,[14],< 0.3 µM (active)
same,AC50,[15],46.9 µM (active)
same,AC50,[16],0.0279 µM (active)
same,AC50,[17],33.4 µM (active)
same,AC50,[18],0.0828 µM (active)
COCCNC(=O)Cn1nc(-c2ccc(Cl)cc2)c2ccccc2c1=O,EC50,[19],> 67.5 µM (inactive)
same,IC50,[20],> 67.5 µM (inactive)
C/C=C1\NC(=O)[C@H](C)NC(=O)[C@@H](NC(=O)[C@H](Cc2ccc(O)cc2)NC(=O)[C@@H](NC(=O)/C(C)=C/C)C(C)C)[C@@H](C)OC(=O)[C@H](CCCc2ccc(O)cc2)NC(=O)[C@@H](CCC(=O)O)NC1=O (Tigloyl-VYTA[Dhb][dE][bishTyr]; ester 3-C),AC50,[21],12.6 µM (active)
Cc1ccccc1Nc1cc2ccccc2c(O)n1,AC50,[22],41.9 µM (inconclusive)
same,EC50,Protein RecA,0.616 µM (active)
same,Ki,fMet-Leu-Phe receptor,> 66.7 µM (inactive)
same,IC50,SUMO-activating enzyme [23],1.84 µM (active)
same,IC50,Bcl-2-related protein A1 [24],> 100 µM (not active)
same,IC50,SUMO-activating enzyme [25],4.3 µM (active)
same,IC50,Bcl-2-related protein A1 [26],22.4 µM (active)
C[C@@H]1CCCCO[C@H](CN(C)S(=O)(=O)c2ccccc2)[C@@H](C)CN([C@H](C)CO)C(=O)c2cc(NC(=O)Nc3ccc4c(c3)OCO4)ccc2O1,AC50,[27],8.49 µM (active)
